Laboratory results taken from patent publication US9974778B2, “Substituted pyridinones as MGAT2 inhibitors” (BRISTOL-MYERS SQUIBB COMPANY, priority 2014, dated 2018).

What follows are compounds tested against T1, Human MGAT-2 (Homo sapiens, UniProt Q3SYC2) (assay: MGAT LCMS Assay). Details: human MGAT2 membranes expressed in Sf9 cells; 100 μM 2-oleoylglycerol, 15 μM oleoyl-coenzyme A; read-out: h-MGAT LCMS IC50.
T1 construct: made in house; host or cells: Sf9 cells (membrane preparation)
Assay type: biochemical
In short: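 Robotic enzyme reaction shaken 10 min, quenched with ice-cold methanol containing 1 μg/mL 1,2-distearoyl-rac-glycerol internal standard. Diolein product measured by LC/MS (C8 column, 65° C, APCI(+) triple quad). IC50 derived from diolein/internal standard peak area ratio.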

T1 sequence (Q3SYC2 whole entry): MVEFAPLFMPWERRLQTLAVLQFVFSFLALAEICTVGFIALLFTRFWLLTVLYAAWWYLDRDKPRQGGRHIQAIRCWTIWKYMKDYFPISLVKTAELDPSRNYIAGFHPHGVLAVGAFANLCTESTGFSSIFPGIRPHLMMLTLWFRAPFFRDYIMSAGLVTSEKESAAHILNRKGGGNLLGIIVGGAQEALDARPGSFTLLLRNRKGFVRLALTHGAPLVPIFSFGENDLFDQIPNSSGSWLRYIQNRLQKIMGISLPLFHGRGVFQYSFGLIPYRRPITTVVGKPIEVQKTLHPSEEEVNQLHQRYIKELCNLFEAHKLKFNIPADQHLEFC

O=C(Nc1ccc(OC(F)(F)F)cc1)c1c(-c2ccn(CC3CC3)n2)cc(-c2ccc(OCCCCCC(F)(F)F)cc2F)[nH]c1=O [Example 118, 4-(1-(Cyclopropylmethyl)-1H-pyrazol-3-yl)-6-(2-fluoro-4-((6,6,6-trifluorohexyl)oxy)phenyl)-2-oxo-N-(4-(trifluoromethoxy)phenyl)-1,2-dihydropyridine-3-carboxamide] was tested. Which IC50 did it give?
The IC50 was 0.019 µM.

With CCOc1ccc(NC(=O)c2c(-c3ccn(CC)n3)cc(-c3ccc(OCCCC(F)(F)F)cc3F)[nH]c2=O)cc1 [Example 119, N-(4-Ethoxyphenyl)-4-(1-ethyl-1H-pyrazol-3-yl)-6-(2-fluoro-4-(4,4,4-trifluorobutoxy)phenyl)-2-oxo-1,2-dihydropyridine-3-carboxamide] as the compound, how does the IC50 read?
Its IC50 is 0.01 µM.

How did the IC50 turn out when CCn1ccc(-c2cc(-c3ccc(OCCCC(F)(F)F)cc3F)[nH]c(=O)c2C(=O)Nc2ccc(OC(F)(F)F)cc2)n1 [Example 120, 4-(1-Ethyl-1H-pyrazol-3-yl)-6-(2-fluoro-4-(4,4,4-trifluorobutoxy)phenyl)-2-oxo-N-(4-(trifluoromethoxy)phenyl)-1,2-dihydropyridine-3-carboxamide] was run?
The IC50 was 0.045 µM.

With CCc1ccc(-c2cc(-c3ccc(OCCCC(F)(F)F)cc3)[nH]c(=O)c2C(=O)NS(=O)(=O)C2CC2)s1 [Example 121] as the compound, how does the IC50 read?
The IC50 was 0.011 µM.

With Cc1ccc(-c2cc(-c3ccc(OCCCC(F)(F)F)cc3F)[nH]c(=O)c2C(=O)Nc2ccc(OC(F)(F)F)cc2)cc1 [Example 122, 6-(2-Fluoro-4-(4,4,4-trifluorobutoxy)phenyl)-2-oxo-4-(p-tolyl)-N-(4-(trifluorormethoxy)phenyl)-1,2-dihydropyridine-3-carboxamide] as the compound, how does the IC50 read?
Its IC50 is 0.027 µM.

How did the IC50 turn out when O=c1[nH]c(-c2ccc(OCCCCCC(F)(F)F)cc2F)cc(-c2ccc(C3CC3)cc2)c1-c1nnn[nH]1 [Example 123, 4-(4-Cyclopropylphenyl)-6-(2-fluoro-4-((6,6,6-trifluorohexyl)oxy)phenyl)-3-(1H-tetrazol-5-yl)pyridin-2(1H)-one] was run?
The IC50 was 0.011 µM.

How did the IC50 turn out when CCOc1cc(OCCCCCC(F)(F)F)ccc1-c1cc(-c2ccc(C3CC3)cc2)c(-c2nnn[nH]2)c(=O)[nH]1 [Example 124, 4-(4-Cyclopropylphenyl)-6-(2-ethoxy-4-((6,6,6-trifIuorohexyl)oxy)phenyl)-3-(1H-tetrazol-5-yl)pyridin-2(1H)-one] was run?
The IC50 was 0.129 µM.

Which IC50 does the source give for O=c1[nH]c(-c2ccc(OCCCC(F)(F)F)cc2F)cc(-c2ncc(C3CC3)s2)c1-c1nnn[nH]1 [Example 125, 4-(5-Cyclopropylthiazol-2-yl)-6-(2-fluoro-4-(4,4,4-trifluorobutoxy)phenyl)-3-(1H-tetrazol-5-yl)pyridin-2(1H)-one] here?
Its IC50 is 0.002 µM.

With CCOc1cc(OCCCC(F)(F)F)ccc1-c1cc(-c2ccc(C)cc2)c(C(=O)NS(=O)(=O)C2CC2)c(=O)[nH]1 [Example 126, N-(Cyclopropylsulfonyl)-6-(2-ethoxy-4-(4,4,4-trifluorobutoxy)phenyl)-2-oxo-4-(p-tolyl)-1,2-dihydropyridine-3-carboxamide] as the compound, how does the IC50 read?
The IC50 was 0.043 µM.

For CCc1ccc(-c2c(Cl)c(-c3ccc(OCCCC(F)(F)F)cc3)[nH]c(=O)c2-c2nnn[nH]2)s1 [Example 128, 5-Chloro-4-(5-ethylthiophen-2-yl)-3-(1H-tetrazol-5-yl)-6-(4-(4,4,4-trifluorobutoxy)phenyl)pyridin-2(1H)-one], which IC50 is on record?
The IC50 was 0.083 µM.

For CCn1ccc(-c2cc(-c3ccc(OCCCC(F)(F)F)cc3C(F)(F)F)[nH]c(=O)c2-c2nn[nH]n2)n1 [Example 129, 4-(1-Ethyl-1H-pyrazol-3-yl)-3-(2H-tetrazol-5-yl)-6-(4-(4,4,4-trifluorobutoxy)-2-(trifluoromethyl)phenyl)pyridin-2(1H)-one], which IC50 is on record?
The IC50 was 0.051 µM.

How did the IC50 turn out when O=c1[nH]c(-c2ccc(OCCCCCC(F)(F)F)cc2F)cc(-c2ccc(C(F)F)cc2)c1-c1nnn[nH]1 [Example 130, 4-(4-(Difluoromethyl)phenyl)-6-(2-fluoro-4-((6,6,6-trifluorohexyl)oxy)phenyl)-3-(1H-tetrazol-5-yl)pyridin-2(1H)-one] was run?
The IC50 was 0.004 µM.

For Cc1ccc(-c2cc(-c3ccc(OCCCCCC(F)(F)F)cc3Cl)[nH]c(=O)c2C(=O)Nc2ccc(OC(F)(F)F)cc2)cc1 [Example 131, 6-(2-Chloro-4-((6,6,6-trifluorohexyl)oxy)phenyl)-2-oxo-4-(p-tolyl)-Ar-(4-(trifluoromethoxy)phenyl)-1,2-dihydropyridine-3-carboxamide], which IC50 is on record?
The IC50 was 0.007 µM.

With Cc1ccc(-c2cc(-c3ccc(OCCCC(F)(F)F)cc3Cl)[nH]c(=O)c2C(=O)Nc2ccc(OC(F)(F)F)cc2)cc1 [Example 132, 6-(2-Chloro-4-(4,4,4-trifluorobutoxy)phenyl)-2-oxo-4-(p-tolyl)-N-(4-(trifluoromethoxy)phenyl)-1,2-dihydropyridine-carboxamide] as the compound, how does the IC50 read?
The IC50 was 0.014 µM.

How did the IC50 turn out when CCc1cnc(-c2cc(-c3ccc(OCCCC(F)(F)F)cc3F)[nH]c(=O)c2-c2nnn[nH]2)s1 [Example 133, 4-(5-Ethylthiazol-2-yl)-6-(2-fluoro-4-(4,4,4-trifluorobutoxy)phenyl)-3-(1H-tetrazol-5-yl)pyridin-2(1H)-one] was run?
The IC50 was 0.002 µM.

For Cc1ccc(-c2cc(-c3ccc(OCCCCCC(F)(F)F)cc3C(F)(F)F)[nH]c(=O)c2-c2nnn[nH]2)cc1 [Example 134, 3-(2H-Tetrazol-5-yl)-4-(p-tolyl)-6-(4-((6,6,6-trifluorohexyl)oxy)-2-(trifluoromethyl)phenyl)pyridin-2(1H)-one], which IC50 is on record?
The IC50 was 0.003 µM.

CCc1ccc(-c2cc(-c3ccc(OCCCC(F)(F)F)cc3F)[nH]c(=O)c2C(=O)NS(C)(=O)=O)s1 [Example 135, 4-(5-Ethylthiophen-2-yl)-6-(2-fluoro-4-(4,4,4-trifluorobutoxy)phenyl)-N-(methylsulfonyl)-2-oxo-1,2-dihydropyridine-3-carboxamide] was tested. Which IC50 did it give?
Its IC50 is 0.005 µM.

For CCOc1cc(OCCCC(F)(F)F)ccc1-c1cc(-c2ncc(C3CC3)s2)c(-c2nnn[nH]2)c(=O)[nH]1 [Example 137, 4-(5-Cyclopropylthiazol-2-yl)-6-(2-ethoxy-4-(4,4,4-trifluorobutoxy)phenyl)-3-(1H-tetrazol-5-yl)pyridin-2(1H)-one], which IC50 is on record?
The IC50 was 0.005 µM.

For O=C(NS(=O)(=O)C1CC1)c1c(-c2ncc(C3CC3)s2)cc(-c2ccc(OCCCC(F)(F)F)cc2F)[nH]c1=O [Example 138, N-(Cyclopropylsulfonyl)-4-(5-cyclopropylthiazol-2-yl)-6-(2-fluoro-4-(4,4,4-trifluorobutoxy)phenyl)-2-oxo-1,2-dihydropyridine-3-carboxamide], which IC50 is on record?
The IC50 was 0.013 µM.

With CCc1ccc(-c2cc(-c3ccc(OCCCC(F)(F)F)cc3Cl)[nH]c(=O)c2-c2nnn[nH]2)s1 [Example 139, 6-(2-Chloro-4-(4,4,4-trifluorobutoxy)phenyl)-4-(5-ethylthiophen-2-yl)-3-(1H-tetrazol-5-yl)pyridin-2(1H)-one] as the compound, how does the IC50 read?
The IC50 was 0.004 µM.

CCc1ccc(-c2cc(-c3ccc(OCCCC(F)(F)F)cc3Cl)[nH]c(=O)c2C(=O)NS(C)(=O)=O)s1 [Example 140, 6-(2-Chloro-4-(4,4,4-trifluorobutoxy)phenyl)-4-(5-ethylthiophen-2-yl)-N-(methylsulfonyl)-2-oxo-1,2-dihydropyridine-3-carboxamide] was tested. Which IC50 did it give?
The IC50 was 0.03 µM.

With CS(=O)(=O)NC(=O)c1c(-c2ncc(C3CC3)s2)cc(-c2ccc(OCCCC(F)(F)F)cc2F)[nH]c1=O [Example 141, 4-(5-Cyclopropylthiazol-2-yl)-6-(2-fluoro-4-(4,4,4-trifluorobutoxy)phenyl)-N-(methylsulfonyl)-2-oxo-1,2-dihydropyridine-3-carboxamide] as the compound, how does the IC50 read?
Its IC50 is 0.007 µM.

How did the IC50 turn out when CCc1ccc(-c2cc(-c3ccc(/C=C/C4CC4)cc3)[nH]c(=O)c2-c2nn[nH]n2)s1 [Example 142, (E)-6-(4-(2-Cyclopropylvinyl)phenyl)-4-(5-ethylthiophen-2-yl)-3-(2H-tetrazol-5-yl)pyridin-2(1H)-one] was run?
Its IC50 is 0.004 µM.

With CCOc1cc(OCCCC(F)(F)F)ccc1-c1cc(-c2ncc(C3CC3)s2)c(C(=O)NS(C)(=O)=O)c(=O)[nH]1 [Example 143, 4-(5-Cyclopropylthiazol-2-yl)-6-(2-ethoxy-4-(4,4,4-trifluorobutoxy)phenyl)-N-(methylsulfonyl)-2-oxo-1,2-dihydropyridine-3-carboxamide] as the compound, how does the IC50 read?
The IC50 was 0.052 µM.

How did the IC50 turn out when CCc1ccc(-c2cc(-c3ccc(C4=CCC(C)(C)CC4)cc3)[nH]c(=O)c2-c2nn[nH]n2)s1 [Example 144, 6-(4′,4′-Dimethyl-2′,3′,4′,5′-tetrahydro-[1,1′-biphenyl]-4-yl)-4-(5-ethylthiophen-2-yl)-3-(2H-tetrazol-5-yl)pyridin-2(1H)-one] was run?
The IC50 was 0.024 µM.

How did the IC50 turn out when CCc1ccc(-c2cc(-c3ccc(CCC4CC4)cc3)[nH]c(=O)c2-c2nn[nH]n2)s1 [Example 145, 6-(4-(2-Cyclopropylethyl)phenyl)-4-(5-ethylthiophen-2-yl)-3-(2H-tetrazol-5-yl)pyridin-2(1H)-one] was run?
Its IC50 is 0.01 µM.

CCc1cnc(-c2cc(-c3ccc(OCCCC(F)(F)F)cc3F)[nH]c(=O)c2C(=O)NS(C)(=O)=O)s1 [Example 146, 4-(5-Ethylthiazol-2-yl)-6-(2-fluoro-4-(4,4,4-trifluorobutoxy)phenyl)-N-(methylsulfonyl)-2-oxo-1,2-dihydropyridine-3-carboxamide] was tested. Which IC50 did it give?
The IC50 was 0.029 µM.

Which IC50 does the source give for CCc1cnc(-c2cc(-c3ccc(/C=C/C4CC4)cc3)[nH]c(=O)c2-c2nn[nH]n2)s1 [Example 147, (E)-6-(4-(2-Cyclopropylvinyl)phenyl)-4-(5-ethylthiazol-2-yl)-3-(2H-tetrazol-5-yl)pyridin-2(1H)-one] here?
Its IC50 is 0.007 µM.

CCc1cnc(-c2cc(-c3ccc(OCCCCCC(F)(F)F)cc3F)[nH]c(=O)c2-c2nnn[nH]2)s1 [Example 148, 4-(5-Ethylthiazol-2-yl)-6-(2-fluoro-4-((6,6,6-trifluorohexyl)oxy)phenyl)-3-(1H-tetrazol-5-yl)pyridin-2(1H)-one] was tested. Which IC50 did it give?
The IC50 was 0.0008 µM.

Which IC50 does the source give for CCc1cnc(-c2cc(-c3ccc(CCC4CC4)cc3)[nH]c(=O)c2-c2nn[nH]n2)s1 [Example 149, 6-(4-(2-Cyclopropylethyl)phenyl)-4-(5-ethylthiazol-2-yl)-3-(2H-tetrazol-5-yl)pyridin-2(1H)-one] here?
Its IC50 is 0.052 µM.
